US9206136B2, “Pyrazolyl-based carboxamides I” (Grünenthal GmbH, priority 2013, dated 2015)

Key:
[1] = molecular target: T1, CRAC channel (endogenous SOC in HEK293 cells) (Homo sapiens, UniProt Q96D31); assay: HEK Calcium Influx Assay (FLIPR); assay type: cell-based; conditions: 10 μM compound, thapsigargin store depletion, Ca2+ signal 9.5-10 min post-administration, read-out: % inhib. [@ 10 μM] FLIPR
T1 construct: host or cells: HEK293
Description: Compounds of the invention have been tested for their effects on CRAC channels according to the following or similar procedures.
The effect of compounds of the invention on intracellular [Ca^2+] was tested in the HEK293 cell line (ECACC).
HEK293 cells were cultured in DMEM/F12/Glutamax (Gibco) containing 10% FCS (Gibco), and maintained at 37° C., 5% CO2. Cell were split twice a week [3·10^6 (Mon-Thu) and 1·10^6 (Thu-Mon) cells/50 ml medium in T-175 ZK culture flasks, respectively]. 24 hours pre-experiment, cells were seeded on 96 well plates (Poly-D-Lysine 96well Black/Clear Plate, BD Biocoat REF 356640) at a density of 40,000 cells/well in DMEM/F12 (Gibco) containing 10% FCS (Gibco), and maintained at 37° C., 5% CO2.
Prior to store-depletion, cell culture medium was removed and cells were loaded with the a Ca^2+-sensitive fluorescent dye comprised within the Calcium-4-assay kit (Molecular Devices) in nominally Ca^2+-free HBS buffer (140 mM NaCl, 4 mM KCl, 0.2 mM MgCl2, 11 mM D-glucose, and 10 mM HEPES, pH 7.4) according to manufacturer's instruction for 60 min at 37° C., 5% CO2.
Passive depletion of intracellular Ca^2+-stores was then triggered by employing the SERCA inhibitor thapsigargin (2 μM final) for 10 min in the dark (rt). To prevent immediate Ca^2+-entry via the activated Store-operated channels (SOCs), cells were maintained in Ca^2+-free HBS buffer comprising 100 μM EGTA during store-depletion.
Intracellular changes in [Ca^2+] were subsequently monitored with the FLIPR device (Molecular Devices). In brief, baseline imaging post-store depletion was allowed for 1 min before adjusting the extracellular buffer to 3 mM CaCl2. Increases in intracellular [Ca^2+] due to pre-activated SOC channels were monitored for 15 min until intracellular Ca^2+ levels had declined into a steady-state. Finally, compounds were administered and Ca^2+ signals were recorded for additional 10 min.
Inhibition of endogenous SOC in HEK293 cells was quantified employing the average Ca^2+ signal measured from 9.5-10 min post-administration. Zero percent inhibition (MAX) was defined as the Ca^2+ signal recorded from wells to which DMSO-only had been added instead of compound. Hundred percent inhibition (MIN) was defined as the signal obtained from wells in which cells haven't been treated with TG prior to Ca^2+ addition and to which DMSO-only had been added instead of compound. For routine IC50 determinations of compounds, 8 concentrations of a serial dilution (1:3.16) were tested, starting off from 10 μM. Reliable IC50's could consequently be determined only, if they were at least sub 2.5-3 μM.

[2] = tested on: Interleukin-2 (IL-2) production/release in Jurkat T cell line clone E6-1; assay: Jurkat IL-2 Production Assay; assay type: cell-based; conditions: Homo sapiens; Jurkat T cells stimulated with 15 μg/ml PHA for 22 hours; IL-2 in supernatant (AlphaLisa)
Description: Jurkat IL-2 Production Assay
The effect of compounds of the invention on Interleukin-2 (IL-2) production/release was tested in the Jurkat T cell line (ECACC) clone E6-1.
Jurkat T cells were cultured in DMEM/F12/Glutamax (Gibco) containing 10% FCS (Gibco), and maintained at 37° C., 5% CO2. Cells were split twice a week [5·10^6 (Mon-Thu) and 1·10^7 (Thu-Mon) cells/50 ml medium in T-175 ZK culture flasks, respectively].
Prior to experiment, cells were seeded on 96 well plates (Cellstar 96 Well; Cat No. 655180, Greiner bio-one) at a density of 5·10^5 cells/well in DMEM/F12/Glutamax (Gibco) containing 10% FCS (Gibco), and incubated for 60 min at 37° C., 5% CO2. Subsequently, compounds were added and cells were allowed to incubate for 30 min at 37° C., 5% CO2. Cells were then stimulated with 15 μg/ml Phyto-hemagglutinin (PHA; Sigma) for 22 hours at 37° C., 5% CO2.
Before sampling of the supernatants, cells were spun down (200*g/5 min/RT). The amount of IL-2 released into the supernatant was quantified with the human IL-2 AlphaLisa kit (Perkin Elmer) according to manufacturer's instructions. Luminescence proximity measurements were carried out in the Synergy H4 reader (BioTek) employing the fluorescence setting of the reader (ex: 680/30 nm; em: 620/40 nm).
Inhibition of IL-Production/Release in/from Jurkat T Cells Cells was Quantified as Follows:
Zero percent inhibition (MAX) was defined as the [IL-2] determined in supernatants derived from cells to which PHA & DMSO-only had been added instead of compound. Hundred percent inhibition (MIN) was defined as the [IL-2] determined in supernatants derived from cells that had been pre-treated with 1 μM CyclosporineA (Sigma) before the addition of 15 μg/ml PHA.
For routine IC50 determinations of compounds, 8 concentrations of a serial dilution (1:3.16) were tested, starting off from 10 μM.

T1 sequence (Q96D31 whole entry): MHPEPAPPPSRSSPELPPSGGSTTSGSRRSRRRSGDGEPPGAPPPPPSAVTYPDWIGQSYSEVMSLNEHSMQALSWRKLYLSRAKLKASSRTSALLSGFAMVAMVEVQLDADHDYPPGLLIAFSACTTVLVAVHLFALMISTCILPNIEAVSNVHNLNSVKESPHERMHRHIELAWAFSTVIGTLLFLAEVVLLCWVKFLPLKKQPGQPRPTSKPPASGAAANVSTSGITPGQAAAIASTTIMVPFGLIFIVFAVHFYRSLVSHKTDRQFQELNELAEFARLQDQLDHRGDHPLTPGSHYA

SMILES	inhibition at 10 µM [1] [%]	IC50 [2] [µM]
Cc1cnc(C2CC2)nc1-c1cc(C(=O)Nc2c(F)cccc2F)nn1C [Example 17, 5-(2-Cyclopropyl-5-methyl-pyrimidin-4-yl)-N-(2,6-difluoro-phenyl)-1-methyl-1H-pyrazole-3-carboxylic acid amide]	50 to 70	–
COc1ccc(C2CC2)cc1-c1cc(C(=O)Nc2ccncc2F)nn1C [Example 15, 5-(5-Cyclopropyl-2-methoxy-phenyl)-N-(3-fluoro-pyridin-4-yl)-1-methyl-1H-pyrazole-3-carboxylic acid amide]	> 70	1 to 5
Cc1nnc(-c2ccc(C)c(-c3cc(C(=O)Nc4c(F)cccc4F)nn3C)c2)[nH]1 [Example 28, N-(2,6-Difluoro-phenyl)-1-methyl-5-[2-methyl-5-(5-methyl-4H-[1,2,4]triazol-3-yl)-phenyl]-1H-pyrazole-3-carboxylic acid amide]	< 50	1 to 5
Cc1ccc(-c2ncco2)cc1-c1cc(C(=O)Nc2ccncc2F)nn1C [Example 2, N-(3-Fluoro-pyridin-4-yl)-1-methyl-5-(2-methyl-5-oxazol-2-yl-phenyl)-1H-pyrazole-3-carboxylic acid amide]	50 to 70	–
Cc1c(C(=O)Nc2c(F)cccc2F)nn(C)c1-c1cccc(-c2nccs2)c1 [Example 27, N-(2,6-Difluoro-phenyl)-1,4-dimethyl-5-(3-thiazol-2-yl-phenyl)-1H-pyrazole-3-carboxylic acid amide]	> 70	0.5 to 1
COc1ccc(C2=NOC(C)(C)C2=O)cc1-c1cc(C(=O)Nc2c(F)cccc2F)nn1C [Example 48]	< 50	0.5 to 1
Cc1ccc(-c2nccs2)cc1-c1cc(C(=O)Nc2ccc(F)cc2)nn1C [Example 5, N-(4-Fluorophenyl)-1-methyl-5-(2-methyl-5-thiazol-2-yl-phenyl)-1H-pyrazole-3-carboxylic acid amide]	50 to 70	1 to 5
Cc1ccc(-c2cncnc2)cc1-c1cc(C(=O)Nc2c(F)cccc2F)nn1C [Example 13, N-(2,6-Difluoro-phenyl)-1-methyl-5-(2-methyl-5-pyrimidin-5-yl-phenyl)-1H-pyrazole-3-carboxylic acid amide]	< 50	< 0.5
Cn1nc(C(=O)Nc2ccncc2F)cc1-c1cc(-c2nccs2)ccc1Cl [Example 9, 5-(2-Chloro-5-thiazol-2-yl-phenyl)-N-(3-fluoro-pyridin-4-yl)-1-methyl-1H-pyrazole-3-carboxylic acid amide]	50 to 70	1 to 5
Cn1nc(C(=O)Nc2c(F)cncc2F)cc1-c1cc(-c2ncco2)ccc1OC(F)(F)F [Example 33, N-(3,5-Difluoro-pyridin-4-yl)-1-methyl-5-[5-oxazol-2-yl-2-(trifluoro-methyloxy)-phenyl]-1H-pyrazole-3-carboxylic acid amide]	50 to 70	0.5 to 1
Cn1nc(C(=O)Nc2c(F)cncc2F)cc1-c1ccc(C2CC2)cc1OC(F)(F)F [Example 40, 5-[4-Cyclopropyl-2-(trifluoromethyloxy)-phenyl]-N-(3,5-difluoro-pyridin-4-yl)-1-methyl-1H-pyrazole-3-carboxylic acid amide]	> 70	< 0.5
Cc1cc(-c2nccs2)ccc1-c1cc(C(=O)Nc2c(F)cccc2F)nn1C [Example 24, N-(2,6-Difluoro-phenyl)-1-methyl-5-(2-methyl-4-thiazol-2-yl-phenyl)-1H-pyrazole-3-carboxylic acid amide]	> 70	1 to 5
COc1ccc(-c2nccs2)cc1-c1cc(C(=O)Nc2ccncc2F)nn1C [Example 7, N-(3-Fluoro-pyridin-4-yl)-5-(2-methoxy-5-thiazol-2-yl-phenyl)-1-methyl-1H-pyrazole-3-carboxylic acid amide]	< 50	0.5 to 1
Cc1ccc(-c2ccncc2)cc1-c1cc(C(=O)Nc2ccncc2F)nn1C [Example 11, N-(3-Fluoro-pyridin-4-yl)-1-methyl-5-(2-methyl-5-pyridin-4-yl-phenyl)-1H-pyrazole-3-carboxylic acid amide]	> 70	1 to 5
COc1ccc(NC(=O)c2cc(-c3cc(-c4nccs4)ccc3C)n(C)n2)cc1 [Example 4, N-(4-Methoxyphenyl)-1-methyl-5-(2-methyl-5-thiazol-2-yl-phenyl)-1H-pyrazole-3-carboxylic acid amide]	50 to 70	1 to 5
Cc1ccc(-c2nnc[nH]2)cc1-c1cc(C(=O)Nc2c(F)cccc2F)nn1C [Example 32, N-(2,6-Difluoro-phenyl)-1-methyl-5-[2-methyl-5-(4H-[1,2,4]triazol-3-yl)-phenyl]-1H-pyrazole-3-carboxylic acid amide]	< 50	1 to 5
Cc1ccc(C2CCOCC2)cc1-c1cc(C(=O)Nc2c(F)cccc2F)nn1C [Example 22, N-(2,6-Difluoro-phenyl)-1-methyl-5-(2-methyl-5-tetrahydro-pyran-4-yl-phenyl)-1H-pyrazole-3-carboxylic acid amide]	> 70	1 to 5
Cc1cnccc1NC(=O)c1cc(-c2cc(-c3nccs3)ccc2C)n(C)n1 [Example 6, 1-Methyl-N-(3-methyl-pyridin-4-yl)-5-(2-methyl-5-thiazol-2-yl-phenyl)-1H-pyrazole-3-carboxylic acid amide]	50 to 70	1 to 5
COc1ccc(-c2ncco2)cc1-c1c(N)c(C(=O)Nc2c(F)cccc2F)nn1C [Example 46, 4-amino-N-(2,6-difluorophenyl)-5-(2-methoxy-5-(oxazol-2-yl)phenyl)-1-methyl-1H-pyrazole-3-carboxamide]	< 50	1 to 5
Cn1nc(C(=O)Nc2c(F)cccc2F)cc1-c1cccc(-c2nccs2)c1 [Example 14, N-(2,6-Difluoro-phenyl)-1-methyl-5-(3-thiazol-2-yl-phenyl)-1H-pyrazole-3-carboxylic acid amide]	> 70	< 0.5
Cc1ccc(C2CCOCC2)cc1-c1cc(C(=O)Nc2ccncc2F)nn1C [Example 21, N-(3-Fluoro-pyridin-4-yl)-1-methyl-5-(2-methyl-5-tetrahydro-pyran-4-yl-phenyl)-1H-pyrazole-3-carboxylic acid amide]	50 to 70	–
Cc1c(C(=O)Nc2ccncc2F)nn(C)c1-c1cccc(-c2nccs2)c1 [Example 29, N-(3-Fluoro-pyridin-4-yl)-1,4-dimethyl-5-(3-thiazol-2-yl-phenyl)-1H-pyrazole-3-carboxylic acid amide]	> 70	–
